In patent US10870652B2, “Compounds and methods for modulating bruton's tyrosine kinase” (CORVUS PHARMACEUTICALS, INC., priority 2016, dated 2020) one finds IC50 data, which are given here for 15 compounds.

In general, IC50 refers to the concentration that inhibits the measured activity by half. The low end stands for higher potency, the high end for lower potency.

What all share (type): biochemical
One assay deals with T1, ITK (Homo sapiens, UniProt Q08881).
T1 sequence (Q08881 1-620): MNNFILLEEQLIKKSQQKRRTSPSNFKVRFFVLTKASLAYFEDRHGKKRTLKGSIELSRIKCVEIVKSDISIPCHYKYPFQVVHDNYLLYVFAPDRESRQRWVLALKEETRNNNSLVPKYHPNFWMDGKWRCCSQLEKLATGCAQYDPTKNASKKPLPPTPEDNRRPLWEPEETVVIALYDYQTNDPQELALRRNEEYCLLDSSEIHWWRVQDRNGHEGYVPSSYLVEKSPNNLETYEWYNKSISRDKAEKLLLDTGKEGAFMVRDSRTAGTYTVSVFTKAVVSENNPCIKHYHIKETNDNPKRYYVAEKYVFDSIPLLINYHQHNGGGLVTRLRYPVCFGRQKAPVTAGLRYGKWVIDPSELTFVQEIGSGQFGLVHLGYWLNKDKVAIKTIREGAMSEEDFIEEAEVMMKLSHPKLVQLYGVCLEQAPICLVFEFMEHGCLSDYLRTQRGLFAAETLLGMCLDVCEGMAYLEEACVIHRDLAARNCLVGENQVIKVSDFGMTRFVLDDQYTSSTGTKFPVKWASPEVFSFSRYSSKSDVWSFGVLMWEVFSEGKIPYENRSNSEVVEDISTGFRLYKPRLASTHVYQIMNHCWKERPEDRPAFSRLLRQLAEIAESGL
Kind of assay: ITK IC50 kinase inhibition assay.

For another assay, the target named is BTK (Homo sapiens, UniProt Q06187). In words: BTK IC50 kinase inhibition assay.
BTK, sequence (Q06187 whole entry): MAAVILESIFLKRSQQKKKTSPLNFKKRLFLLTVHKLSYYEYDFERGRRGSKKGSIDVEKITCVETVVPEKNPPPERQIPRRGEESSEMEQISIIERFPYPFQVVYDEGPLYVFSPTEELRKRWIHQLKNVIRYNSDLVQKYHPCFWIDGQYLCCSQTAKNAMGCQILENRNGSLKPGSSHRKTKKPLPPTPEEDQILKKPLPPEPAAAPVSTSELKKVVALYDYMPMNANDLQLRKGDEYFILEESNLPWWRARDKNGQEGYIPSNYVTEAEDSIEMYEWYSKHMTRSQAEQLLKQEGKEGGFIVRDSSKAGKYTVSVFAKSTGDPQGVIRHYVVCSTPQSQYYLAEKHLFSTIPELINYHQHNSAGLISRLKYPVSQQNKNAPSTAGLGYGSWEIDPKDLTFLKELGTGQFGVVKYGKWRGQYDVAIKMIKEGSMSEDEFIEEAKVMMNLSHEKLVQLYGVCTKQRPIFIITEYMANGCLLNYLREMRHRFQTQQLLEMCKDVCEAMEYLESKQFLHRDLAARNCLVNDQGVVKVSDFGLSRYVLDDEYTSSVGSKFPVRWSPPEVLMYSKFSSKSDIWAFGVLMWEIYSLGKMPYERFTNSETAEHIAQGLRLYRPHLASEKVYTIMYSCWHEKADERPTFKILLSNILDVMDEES
In the next assay the target is T2, JAK3 (Homo sapiens, UniProt P52333).
T2 sequence (P52333 1-1124): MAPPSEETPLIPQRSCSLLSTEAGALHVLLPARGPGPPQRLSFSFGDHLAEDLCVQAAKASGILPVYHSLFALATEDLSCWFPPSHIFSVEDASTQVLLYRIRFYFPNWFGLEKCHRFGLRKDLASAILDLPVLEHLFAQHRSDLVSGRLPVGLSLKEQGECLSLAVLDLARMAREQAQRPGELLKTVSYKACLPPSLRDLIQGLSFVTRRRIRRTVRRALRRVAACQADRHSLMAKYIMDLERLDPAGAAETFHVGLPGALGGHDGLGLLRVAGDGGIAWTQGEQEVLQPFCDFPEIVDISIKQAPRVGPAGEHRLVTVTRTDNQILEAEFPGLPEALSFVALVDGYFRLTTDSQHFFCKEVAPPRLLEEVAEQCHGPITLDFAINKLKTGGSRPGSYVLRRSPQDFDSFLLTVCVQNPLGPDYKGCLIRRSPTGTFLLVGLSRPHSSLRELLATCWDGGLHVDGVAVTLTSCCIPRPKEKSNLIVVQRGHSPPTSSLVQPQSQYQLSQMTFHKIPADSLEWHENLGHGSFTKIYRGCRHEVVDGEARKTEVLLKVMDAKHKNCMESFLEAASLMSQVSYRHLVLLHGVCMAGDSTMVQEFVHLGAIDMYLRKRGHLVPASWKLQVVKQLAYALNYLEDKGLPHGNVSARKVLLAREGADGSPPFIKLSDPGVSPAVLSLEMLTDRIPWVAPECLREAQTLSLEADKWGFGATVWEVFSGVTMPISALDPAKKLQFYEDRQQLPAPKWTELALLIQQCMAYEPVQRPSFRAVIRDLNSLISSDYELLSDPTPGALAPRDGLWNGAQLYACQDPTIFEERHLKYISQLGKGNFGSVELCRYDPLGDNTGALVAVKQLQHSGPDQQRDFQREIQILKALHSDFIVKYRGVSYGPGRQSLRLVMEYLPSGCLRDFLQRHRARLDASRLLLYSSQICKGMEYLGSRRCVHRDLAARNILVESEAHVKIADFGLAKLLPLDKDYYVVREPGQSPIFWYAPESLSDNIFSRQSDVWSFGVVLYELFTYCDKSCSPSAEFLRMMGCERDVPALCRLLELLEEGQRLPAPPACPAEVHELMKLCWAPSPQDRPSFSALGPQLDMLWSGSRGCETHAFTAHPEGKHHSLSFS
Kind of assay: JAK3 IC50 kinase inhibition assay.

Another assay concerns the target T3, TXK (Homo sapiens, UniProt P42681).
T3 sequence (P42681 1-527): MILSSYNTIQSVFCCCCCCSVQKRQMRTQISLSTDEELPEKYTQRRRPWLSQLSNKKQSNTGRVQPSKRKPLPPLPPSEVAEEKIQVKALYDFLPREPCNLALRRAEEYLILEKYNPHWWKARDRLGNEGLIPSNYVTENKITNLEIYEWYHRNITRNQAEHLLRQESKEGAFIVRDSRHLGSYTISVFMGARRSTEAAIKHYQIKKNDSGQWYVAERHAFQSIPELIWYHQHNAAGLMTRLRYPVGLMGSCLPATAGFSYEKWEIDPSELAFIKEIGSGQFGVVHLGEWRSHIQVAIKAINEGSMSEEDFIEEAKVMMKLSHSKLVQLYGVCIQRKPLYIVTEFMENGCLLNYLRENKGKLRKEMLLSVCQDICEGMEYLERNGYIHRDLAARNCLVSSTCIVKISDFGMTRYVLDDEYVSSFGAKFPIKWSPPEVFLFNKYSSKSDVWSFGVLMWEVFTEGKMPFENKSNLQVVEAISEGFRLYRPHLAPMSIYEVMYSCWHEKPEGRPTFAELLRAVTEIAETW
In words: TXK IC50 kinase inhibition assay.

As for `C=CC(=O)N1CCC[C@@H](n2nc(-c3ccc(Oc4ccccc4)cc3)c3cncnc32)C1` [Compound A9, (R)-1-(3-(3-(4-phenoxyphenyl)-1H-pyrazolo[3,4-d]pyrimidin-1-yl)piperidin-1-yl)prop-2-en-1-one], the IC50 at ITK is over 500 nM; on BTK, under 100 nM; against JAK3 it was over 500 nM; on TXK it was under 100 nM.

In the case of `CC#CC(=O)N[C@H]1C[C@H](n2nc(-c3ccc(Oc4ccccc4)cc3)c3cncnc32)C1` [Compound A69, N-((1r,3r)-3-(3-(4-phenoxyphenyl)-1H-pyrazolo[3,4-d]pyrimidin-1-yl)cyclobutyl)but-2-ynamide], the IC50 was over 500 nM on ITK, under 100 nM on BTK, over 500 nM against JAK3 and over 500 nM against TXK.

For `CC#CC(=O)N1CC[C@@H](n2nc(-c3ccc(Oc4ccccc4)cc3)c3cncnc32)C1` [Compound A18, (R)-1-(3-(3-(4-phenoxyphenyl)-1H-pyrazolo[3,4-d]pyrimidin-1-yl)pyrrolidin-1-yl)but-2-yn-1-one], the IC50 on ITK is over 500 nM; on BTK it was 100 to 500 nM; against JAK3, over 500 nM; against TXK, over 500 nM.

For the compound `C=CC(=O)N1CC[C@@H](n2nc(-c3ccc(Oc4ccccc4)cc3)c3cncc(C#N)c32)C1` [Compound A73, (R)-1-(1-acryloylpyrrolidin-3-yl)-3-(4-phenoxyphenyl)-1H-pyrazolo[4,3-c]pyridine-7-carbonitrile], the IC50 against ITK was over 500 nM; on BTK, under 100 nM; against JAK3, over 500 nM; on TXK, under 100 nM.

For the compound `C=CC(=O)N1CCC[C@@H](n2nc(-c3ccc(Oc4c(F)cccc4F)cc3)c3cncnc32)C1` [Compound A50, (R)-1-(3-(3-(4-(2,6-difluorophenoxy)phenyl)-1H-pyrazolo[3,4-d]pyrimidin-1-yl)piperidin-1-yl)prop-2-en-1-one], the IC50 against ITK was over 500 nM; on BTK, under 100 nM; at JAK3, over 500 nM; against TXK it was 100 to 500 nM.

Regarding `COCC#CC(=O)N1CC2(CC(n3nc(-c4ccc(Oc5ccccc5)cc4)c4cncnc43)C2)C1` [Compound A79, 4-Methoxy-1-(6-(3-(4-phenoxyphenyl)-1H-pyrazolo[3,4-d]pyrimidin-1-yl)-2-azaspiro[3.3]heptan-2-yl)but-2-yn-1-one], the IC50 against ITK was over 500 nM; on BTK it was under 100 nM; on JAK3 it was over 500 nM; against TXK, under 100 nM.

On to `CC#CC(=O)N1CC[C@H](Cn2nc(-c3ccc(Oc4ccccc4)cc3)c3cncnc32)C1` [Compound A64, (S)-1-(3-((3-(4-phenoxyphenyl)-1H-pyrazolo[3,4-d]pyrimidin-1-yl)methyl)pyrrolidin-1-yl)but-2-yn-1-one], for which the IC50 against ITK is over 500 nM; at BTK, under 100 nM; on JAK3 it was over 500 nM; at TXK, 100 to 500 nM.

Turning to `CC#CC(=O)N1CCC(n2nc(-c3ccc(Oc4ccccc4)cc3)c3cncnc32)CC1` [Compound A59, 1-(4-(3-(4-phenoxyphenyl)-1H-pyrazolo[3,4-d]pyrimidin-1-yl)piperidin-1-yl)but-2-yn-1-one], the IC50 was over 500 nM against ITK, 100 to 500 nM against BTK, over 500 nM against JAK3 and over 500 nM on TXK.

For the compound `C=CC(=O)N1CC2(CC(n3nc(-c4ccc(Oc5ccccc5)cc4)c4cncnc43)C2)C1` [Compound A37, 1-(6-(3-(4-phenoxyphenyl)-1H-pyrazolo[3,4-d]pyrimidin-1-yl)-2-azaspiro[3.3]heptan-2-yl)prop-2-en-1-one], the IC50 on ITK is over 500 nM; against BTK, under 100 nM; against JAK3, over 500 nM; against TXK it was 100 to 500 nM.

Take `C=CC(=O)N1CCC[C@@H](n2nc(-c3ccc(Oc4ccccc4)cc3)c3cnccc32)C1` [Compound A23, (R)-1-(3-(3-(4-phenoxyphenyl)-H-pyrazolo[4,3-c]pyridin-1-yl)piperidin-1-yl)prop-2-en-1-one]: the half-inhibitory concentration (IC50) against ITK is over 500 nM; on BTK, under 100 nM; at JAK3, over 500 nM; against TXK, under 100 nM.

Turning to `O=C(C#CCN1CCCCC1)N1CC2(CC(n3nc(-c4ccc(Oc5ccccc5)cc4)c4cncnc43)C2)C1` [Compound A77, 1-(6-(3-(4-Phenoxyphenyl)-1H-pyrazolo[3,4-d]pyrimidin-1-yl)-2-azaspiro[3.3]heptan-2-yl)-4-(piperidin-1-yl)but-2-yn-1-one], the IC50 on ITK was over 500 nM; on BTK, under 100 nM; at JAK3, over 500 nM; against TXK, under 100 nM.

With `CC#CC(=O)N1CCC[C@@H]1Cn1nc(-c2ccc(Oc3ccccc3)cc2)c2cncnc21` [Compound A65, (R)-1-(2-((3-(4-phenoxyphenyl)-1H-pyrazolo[3,4-d]pyrimidin-1-yl)methyl)pyrrolidin-1-yl)but-2-yn-1-one], the IC50 was over 500 nM at ITK, 100 to 500 nM at BTK, over 500 nM at JAK3 and over 500 nM against TXK.

Consider `C=CC(=O)N1CC[C@H](n2nc(-c3ccc(Oc4ccccc4)cc3)c3cncnc32)C1` [Compound A12, (S)-1-(3-(3-(4-phenoxyphenyl)-1H-pyrazolo[3,4-d]pyrimidin-1-yl)pyrrolidin-1-yl)prop-2-en-1-one], for which the IC50 against ITK is over 500 nM; on BTK it was under 100 nM; against JAK3 it was over 500 nM; against TXK, 100 to 500 nM.

Take `C=C(F)C(=O)N1CCC[C@@H](n2nc(-c3ccc(Oc4ccccc4)cc3)c3cncnc32)C1` [Compound A62, (R)-2-fluoro-1-(3-(3-(4-phenoxyphenyl)-1H-pyrazolo[3,4-d]pyrimidin-1-yl)piperidin-1-yl)prop-2-en-1-one]: the IC50 was over 500 nM on ITK, 100 to 500 nM against BTK, over 500 nM on JAK3 and 100 to 500 nM on TXK.

With `C=CC(=O)N1CCC[C@@H]1Cn1nc(-c2ccc(Oc3ccccc3)cc2)c2cncnc21` [Compound A7, (R)-1-(2-((3-(4-phenoxyphenyl)-1H-pyrazolo[3,4-d]pyrimidin-1-yl)methyl)pyrrolidin-1-yl)prop-2-en-1-one], the IC50 on ITK is over 500 nM; on BTK, under 100 nM; on JAK3, over 500 nM; at TXK, 100 to 500 nM.
